Results: ChEMBL document CHEMBL3885881, “DrugMatrix”

Organism: Rattus norvegicus
Experiment: DrugMatrix - Regimen: Daily Repeat
Type: toxicity, organism-based, Sprague-Dawley
Design: regimen Daily Repeat, gender Male, age 6-8 weeks
Details: in vivo, po, route oral GAVAGE, vehicle .5 % CMC; for BASOPHIL / EOSINOPHIL / ERYTHROCYTE COUNT / HEMATOCRIT / HEMOGLOBIN / LEUKOCYTE COUNT / LYMPHOCYTE / MEAN CORPUSCULAR HEMOGLOBIN / MEAN CORPUSCULAR HEMOGLOBIN CONCENTRATION / MONOCYTE / NEUTROPHIL / PLATELET COUNT: tissue Blood; for ALANINE AMINOTRANSFERASE / ALBUMIN / ALKALINE PHOSPHATASE / ASPARTATE AMINOTRANSFERASE / BLOOD UREA NITROGEN / CHLORIDE / CHOLESTEROL / CREATINE PHOSPHOKINASE / CREATININE / GLUCOSE / PHOSPHORUS / POTASSIUM / SODIUM / TOTAL BILIRUBIN / TOTAL PROTEIN: tissue Plasma
[1] = 0 mg/kg, 72 h, dose level Control, time 3 day
[2] = 0 mg/kg, 120 h, dose level Control, time 5 day
[3] = 60 mg/kg, 72 h, dose level Low, time 3 day
[4] = 60 mg/kg, 120 h, dose level Low, time 5 day

CC(C)Cc1ccc([C@H](C)C(=O)O)cc1 [DEXIBUPROFEN]
BASOPHIL [1]: 1.52% | EOSINOPHIL [1]: 0.98% | ERYTHROCYTE COUNT [1]: 6.96 x10E6/uL | HEMATOCRIT [1]: 44.65% | HEMOGLOBIN [1]: 13.62 G/DL | LEUKOCYTE COUNT [1]: 9.83 x10E3/uL | LYMPHOCYTE [1]: 76.48% | MEAN CORPUSCULAR HEMOGLOBIN [1]: 19.57 pg | MEAN CORPUSCULAR HEMOGLOBIN CONCENTRATION [1]: 30.47 G/DL | MONOCYTE [1]: 2.13% | NEUTROPHIL [1]: 18.6% | PLATELET COUNT [1]: 1217.17 x10E3/uL | ALANINE AMINOTRANSFERASE [1]: 41 u/L | ALBUMIN [1]: 3.77 G/DL | ALKALINE PHOSPHATASE [1]: 411.83 u/L | ASPARTATE AMINOTRANSFERASE [1]: 62.83 u/L | BLOOD UREA NITROGEN [1]: 15.17 mg/dL | CHLORIDE [1]: 104.33 MEQ/L | CHOLESTEROL [1]: 71.17 mg/dL | CREATINE PHOSPHOKINASE [1]: 123.5 u/L | CREATININE [1]: 0.55 mg/dL | GLUCOSE [1]: 182.67 mg/dL | PHOSPHORUS [1]: 11.23 mg/dL | POTASSIUM [1]: 7.03 MEQ/L | SODIUM [1]: 148 MEQ/L | TOTAL BILIRUBIN [1]: 0.57 mg/dL | TOTAL PROTEIN [1]: 6.85 G/DL | BASOPHIL [2]: 1.35% | EOSINOPHIL [2]: 0.43% | ERYTHROCYTE COUNT [2]: 6.96 x10E6/uL | HEMATOCRIT [2]: 44.35% | HEMOGLOBIN [2]: 13.98 G/DL | LEUKOCYTE COUNT [2]: 9.45 x10E3/uL | LYMPHOCYTE [2]: 80.83% | MEAN CORPUSCULAR HEMOGLOBIN [2]: 20.1 pg | MEAN CORPUSCULAR HEMOGLOBIN CONCENTRATION [2]: 31.52 G/DL | MONOCYTE [2]: 2.37% | NEUTROPHIL [2]: 14.05% | PLATELET COUNT [2]: 1298 x10E3/uL | ALANINE AMINOTRANSFERASE [2]: 42.17 u/L | ALBUMIN [2]: 3.77 G/DL | ALKALINE PHOSPHATASE [2]: 419 u/L | ASPARTATE AMINOTRANSFERASE [2]: 66.67 u/L | BLOOD UREA NITROGEN [2]: 16.67 mg/dL | CHLORIDE [2]: 103.17 MEQ/L | CHOLESTEROL [2]: 66.33 mg/dL | CREATINE PHOSPHOKINASE [2]: 148.33 u/L | CREATININE [2]: 0.58 mg/dL | GLUCOSE [2]: 196.83 mg/dL | PHOSPHORUS [2]: 11.8 mg/dL | POTASSIUM [2]: 6.47 MEQ/L | SODIUM [2]: 148.33 MEQ/L | TOTAL BILIRUBIN [2]: 0.53 mg/dL | TOTAL PROTEIN [2]: 6.77 G/DL | BASOPHIL [3]: 1.63% | EOSINOPHIL [3]: 0.33% | ERYTHROCYTE COUNT [3]: 7.19 x10E6/uL | HEMATOCRIT [3]: 45.6% | HEMOGLOBIN [3]: 14.37 G/DL | LEUKOCYTE COUNT [3]: 11 x10E3/uL | LYMPHOCYTE [3]: 73.1% | MEAN CORPUSCULAR HEMOGLOBIN [3]: 19.97 pg | MEAN CORPUSCULAR HEMOGLOBIN CONCENTRATION [3]: 31.47 G/DL | MONOCYTE [3]: 2.23% | NEUTROPHIL [3]: 22.3% | PLATELET COUNT [3]: 1212.33 x10E3/uL | ALANINE AMINOTRANSFERASE [3]: 40.33 u/L | ALBUMIN [3]: 3.57 G/DL | ALKALINE PHOSPHATASE [3]: 328 u/L | BLOOD UREA NITROGEN [3]: 13.33 mg/dL | CHLORIDE [3]: 104 MEQ/L | CHOLESTEROL [3]: 71 mg/dL | CREATINE PHOSPHOKINASE [3]: 116 u/L | CREATININE [3]: 0.6 mg/dL | GLUCOSE [3]: 170.33 mg/dL | PHOSPHORUS [3]: 11.63 mg/dL | POTASSIUM [3]: 6.3 MEQ/L | SODIUM [3]: 150 MEQ/L | TOTAL BILIRUBIN [3]: 0.37 mg/dL | BASOPHIL [4]: 1.23% | EOSINOPHIL [4]: 0.3% | ERYTHROCYTE COUNT [4]: 6.82 x10E6/uL | HEMATOCRIT [4]: 42.17% | HEMOGLOBIN [4]: 13.37 G/DL | LEUKOCYTE COUNT [4]: 13 x10E3/uL | LYMPHOCYTE [4]: 76.73% | MEAN CORPUSCULAR HEMOGLOBIN [4]: 19.6 pg | MEAN CORPUSCULAR HEMOGLOBIN CONCENTRATION [4]: 31.67 G/DL | MONOCYTE [4]: 2.2% | NEUTROPHIL [4]: 18.83% | PLATELET COUNT [4]: 1398.33 x10E3/uL | ALANINE AMINOTRANSFERASE [4]: 34 u/L | ALBUMIN [4]: 3.5 G/DL | ALKALINE PHOSPHATASE [4]: 320.33 u/L | ASPARTATE AMINOTRANSFERASE [4]: 59.67 u/L | BLOOD UREA NITROGEN [4]: 15.67 mg/dL | CHLORIDE [4]: 104.67 MEQ/L | CHOLESTEROL [4]: 70.33 mg/dL | CREATINE PHOSPHOKINASE [4]: 96 u/L | CREATININE [4]: 0.53 mg/dL | GLUCOSE [4]: 186.33 mg/dL | PHOSPHORUS [4]: 12.03 mg/dL | POTASSIUM [4]: 6.2 MEQ/L | SODIUM [4]: 149.33 MEQ/L | TOTAL BILIRUBIN [4]: 0.3 mg/dL | TOTAL PROTEIN [4]: 6.27 G/DL
